From ChEMBL document CHEMBL1124312, “Perfluoro-N-[4-(1H-tetrazol-5-ylmethyl)phenyl]alkanamides. A new class of oral antidiabetic agents” (J Med Chem, 1989)
Values joined by “and” are separate entries in the source; they are usually repeats but may differ in a detail not shown here. Equal entries are not always repeated.

Columns and labels:
Assay type in all cases: functional, organism-based
Mus musculus [1] = assay: Activity of perorally administered compound at a dose of 75 mg/kg for 4 days against plasma glucose in obese mice; set-up: dose 75 mg/kg
Mus musculus [2] = assay: Activity of perorally administered compound at a dose of 20 mg/kg for 4 days against plasma glucose in obese mice; set-up: dose 20 mg/kg
Mus musculus [3] = assay: Activity of perorally administered compound at a dose of 20 mg/kg for 4 days against plasma insulin in obese mice; set-up: dose 20 mg/kg
Mus musculus [4] = assay: Activity of perorally administered compound at a dose of 20 mg/kg for 10 days against plasma glucose in diabetic mice; set-up: dose 20 mg/kg
Mus musculus [5] = assay: Activity of perorally administered compound at a dose of 75 mg/kg for 4 days against plasma insulin in diabetic mice; set-up: dose 75 mg/kg
Mus musculus [6] = assay: Activity of perorally administered compound at a dose of 20 mg/kg for 10 days against plasma insulin in diabetic mice; set-up: dose 20 mg/kg
Mus musculus [7] = assay: Activity of perorally administered compound at a dose of 75 mg/kg for 4 days against plasma glucose in diabetic mice; set-up: dose 75 mg/kg

Compound	Plasma glucose (Mus musculus [1])	Plasma glucose (Mus musculus [2])	Plasma insulin (Mus musculus [3])	Plasma glucose (Mus musculus [4])	Plasma insulin (Mus musculus [5])	Plasma insulin (Mus musculus [6])	Plasma glucose (Mus musculus [7])
O=C(Nc1ccc(Cc2nnn[nH]2)cc1)C(F)(F)C(F)(F)C(F)(F)C(F)(F)C(F)(F)C(F)(F)C(F)(F)C(F)(F)F	106 mg/dL	128 mg/dL	–	–	–	–	–
O=C(Nc1ccc(Cc2nnn[nH]2)cc1)C(F)(F)F	138 mg/dL	273 mg/dL	–	–	–	–	–
O=C(Nc1ccc(Cc2nnnn2Cc2ccccc2)cc1)C(F)(F)C(F)(F)C(F)(F)C(F)(F)C(F)(F)C(F)(F)C(F)(F)F	–	152 mg/dL	249 µU/mL	–	–	–	–
O=C(Nc1ccc(Cc2nnn[nH]2)cc1)C(F)(F)C(F)(F)F	120 mg/dL	198 mg/dL	–	–	–	–	–
CC1(COc2ccc(CC3SC(=O)NC3=O)cc2)CCCCC1 (stereo not drawn)	107 mg/dL	191 mg/dL	–	320 mg/dL	25 µU/mL	20 µU/mL	348 mg/dL
O=C(Nc1ccc(Cc2nnn[nH]2)cc1)C(F)(F)C(F)(F)C(F)(F)C(F)(F)F	170 mg/dL	207 mg/dL	–	–	–	–	–
O=C(Nc1ccc(Cc2nnn[nH]2)cc1)C(F)(F)C(F)(F)C(F)(F)C(F)(F)C(F)(F)C(F)(F)C(F)(F)C(F)(F)C(F)(F)F	144 mg/dL	133 mg/dL	–	–	–	–	–
O=C(Nc1ccc(Cc2nn[nH]n2)cc1)C(F)(F)C(F)(F)C(F)(F)C(F)(F)C(F)(F)C(F)(F)C(F)(F)F	87 mg/dL	111 mg/dL and 119 mg/dL	140 µU/mL	256 mg/dL	32 µU/mL	14 µU/mL	163 mg/dL
O=C(Nc1ccc(Cc2nnn[nH]2)cc1)C(F)(F)C(F)(F)C(F)(F)C(F)(F)C(F)(F)C(F)(F)C(F)(F)C(F)F	93 mg/dL	108 mg/dL	–	–	34 µU/mL	–	124 mg/dL
O=C(Nc1ccc(Cc2nnn[nH]2)cc1)C(F)(F)C(F)(F)C(F)(F)C(F)(F)C(F)(F)C(F)(F)F	162 mg/dL	231 mg/dL	–	–	–	–	–
CN(C(=O)C(F)(F)C(F)(F)C(F)(F)C(F)(F)C(F)(F)C(F)(F)C(F)(F)F)c1ccc(Cc2nnnn2C)cc1	–	119 mg/dL	204 µU/mL	–	–	–	–
O=C(Nc1ccc(Cc2nn[nH]n2)cc1)C(F)(F)C(F)(F)C(F)(F)F	100 mg/dL	213 mg/dL	–	307 mg/dL	–	19 µU/mL	–
O=C(Nc1ccc(Cc2nnn[nH]2)cc1)C(F)(F)C(F)(F)C(F)(F)C(F)(F)C(F)(F)C(F)(F)C(F)(F)C(F)(F)C(F)(F)C(F)F	118 mg/dL	123 mg/dL	–	–	–	–	–
CN(C(=O)C(F)(F)C(F)(F)C(F)(F)C(F)(F)C(F)(F)C(F)(F)C(F)(F)F)c1ccc(Cc2nnn(C)n2)cc1	–	128 mg/dL	205 µU/mL	–	–	–	–
O=C(Nc1ccc(Cc2nnn(Cc3ccccc3)n2)cc1)C(F)(F)C(F)(F)C(F)(F)C(F)(F)C(F)(F)C(F)(F)C(F)(F)F	–	119 mg/dL	204 µU/mL	–	–	–	–
